From US20250325524A1, “COMPOSITIONS AND METHODS FOR TREATING RENAL INJURY” (CASE WESTERN RESERVE UNIVERSITY, priority 2018, published 2025)

Key:
[1] = stability on incubation with mouse liver extracts; format: in vitro ADME
[2] = test system: PGE2 production by cell lines; assay: PGE2 production by cell lines; format: cell-based
recombinant 15-PGDH = biological target: T1, recombinant 15-PGDH (Homo sapiens, UniProt P15428); assay: inhibition of recombinant 15-PGDH; format: biochemical
T1 sequence (P15428 1-266): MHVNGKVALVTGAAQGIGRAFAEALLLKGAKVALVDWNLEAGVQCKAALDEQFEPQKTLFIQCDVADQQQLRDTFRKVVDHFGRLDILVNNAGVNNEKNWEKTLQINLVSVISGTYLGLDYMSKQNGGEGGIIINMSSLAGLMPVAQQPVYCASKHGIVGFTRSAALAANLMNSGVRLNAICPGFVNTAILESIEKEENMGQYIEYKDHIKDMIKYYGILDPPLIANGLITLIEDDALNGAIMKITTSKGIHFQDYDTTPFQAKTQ

[3] = stability on incubation with rat liver extracts; format: in vitro ADME
mice = assay: toxicity after IP injection into mice; details: IP into mice at 50 mg/kg body weight
[4] = stability on incubation with human liver extracts; format: in vitro ADME
[5] = chemical stability in aqueous solutions; format: physicochemical; details: over broad pH range
[6] = test system: HMGB1 and proinflammatory cytokines; assay: renal IRI model: HMGB1 and cytokine levels; format: in vivo; details: mice, 3 doses 5 mg/kg
Description: (§1) Mice were anesthetized with isoflurane using a vaporizer and placed on a heating pad to maintain their body temperature at 37° C. Both renal arteries were identified through dorsal incisions and clamped for 20, 30, 35, or 37 minutes. Reperfusion was confirmed visually upon release of the clamps. Surgical wounds were closed, and mice were administered 1 mL of saline i.p. The mice were kept in a warm incubator until they regained consciousness and were allowed to recover with ad libitum access to food and water. […] Serum and kidney tissue were collected 24 hours after renal IRI.
Inflammatory cytokine mRNA and protein levels were measured by real-time PCR and ELISA, respectively. Kidney tissue and serum were harvested after reperfusion for 24 h. Total RNA was extracted from frozen kidney tissue using TRIzol reagent (15596018; Invitrogen), according to the manufacturer's protocol. RNA was converted to cDNA using oligo-dT primers. IL-17, TNF-α, and […] levels were determined by real-time PCR with SYBR green PCR Master Mix and the primers listed in Table 1. For ELISA, frozen kidney tissues were homogenized in phosphate buffer. Serum IL-17 (M1700; R&D Systems), TNF-α (MTAOOB; R&D Systems), and IL-10β (MLBOOC; R&D Systems) were measured using commercial ELISA kits according to the manufacturer's instructions.

[7] = test system: PGE2 receptors (EP1, EP2, EP3 and EP4) and adenosine receptor (A2A); assay: renal IRI model: PGE2 receptors (EP1-EP4) and adenosine A2A receptor levels; format: in vivo, mice; details: kidney tissue, IRI mice
Description: as §1
PGE2 receptors (EP1, EP2, EP3 and EP4) and adenosine receptor (A2A) mRNA levels were determined by real-time PCR with SYBR green PCR Master Mix and the primers listed in Table 1. Their protein levels were determined by western blotting assay and immunofluorescence analysis.

mice with ischemic AKI [8] = assay: renal ischemia-reperfusion injury model: renal function (serum creatinine, NGAL, KIM-1); format: in vivo; details: IRI-30 min, 3 doses of 5 mg/kg, 24 hours reperfusion
Description: as §1
Renal function was assessed by determining the serum levels of creatinine (KB02-H1; Arbor Assays), Lipocalin-2 (NGAL; MLCN20; R&D Systems), and kidney injury molecule-1 (KIM-1; MKM100; R&D Systems) after reperfusion for 24 h.

[9] = test system: renal arterioles in the outer medulla; assay: renal vasodilatation in the outer medulla (α-SMA-positive arteriole area); format: in vivo, mice; details: IRI mice; α-SMA staining
Description: as §1
To quantify vasodilation, the inner arteriole area of the outer medulla was determined using α-SMA-stained sections. After counterstaining with Mayer's hematoxylin, the inner area of α-SMA-positive vessels in the outer medulla (×25) was measured using ImageJ. The results are expressed as average areas of renal arteries outer medulla.

mice with ischemic AKI [10] = assay: renal IRI model: necrotic and apoptotic cell death in the outer medulla; format: in vivo
Description: as §1
To evaluate necrosis, 5-μm-thick paraffin sections were stained with H&E. Tubular injury was scored semi quantitatively according to a scoring system by a pathologist who examined at least 20 separate fields (×400) in the outer medulla, which is the zone most sensitive to ischemic injury. The scoring system was as follows: 0, no damage; 1, patchy isolated unicellular necrosis; 2, tubular necrosis <25%; 3, tubular necrosis 25-50%; and 4, tubular necrosis >50%. At least 20 consecutive high-power fields (magnification, ×400) per section were scored by two operators blind to the details of the experiment. To analyze the frequency of apoptosis, 5-μm-thick paraffin sections were subjected to terminal deoxynucleotidyl transferase-mediated dUTP nick-end labeling (TUNEL) assay (APT110; Millipore) according to the manufacturer's protocol. TUNEL-positive cells were counted in at least five separate fields (×640 magnification) in the outer medulla, and the apoptosis index (%, number of apoptosis cells/total number of cells) was calculated using GENASIS software.

mice with ischemic AKI [11] = assay: survival and body weight over 7 days after renal IRI; format: in vivo; details: bilateral IRI 30 minutes, 5 mg/kg i.p. before and twice daily over 7 days, POD7
Description: (A) Experimental setup for toxicity. Ischemic AKI induced by bilaterally clamping the renal arteries for 30 minutes, followed by reperfusion. […] (n=10 per group). (B, C) Survival curves and body weight over 7 days. Kaplan-Meier analysis of survival stratified by AKI stage. Data are means±SEM. *P<0.05 vs. corresponding BI30_vehicle.

CCCC[S+]([O-])c1sc2nc(-c3nccs3)cc(-c3cnc(C)n3C)c2c1N (stereo not drawn) [formula (VII)]
chemical stability when incubated with mouse liver extracts [1]: chemically stable | concentration at which PGE2 production by cell lines is increased [2]: 20 nM | concentration at which recombinant 15-PGDH is inhibited (recombinant 15-PGDH): 3 nM | chemical stability when incubated with rat liver extracts [3]: chemically stable | immediate toxicity over 24 hours (mice): no immediate toxicity | chemical stability when incubated with human liver extracts [4]: chemically stable | chemical stability in aqueous solutions [5]: chemically stable

COc1ccc2c(c1)c(CC(=O)O)c(C)n2C(=O)c1ccc(Cl)cc1 [indomethacin, reference compound]
induction of inflammatory cytokines [6]: increased induction of inflammatory cytokines | increase of HMGB1 compared to the IRI-vehicle group ([6]; kidney tissue, western blot): 50% | EP4 mRNA [7]: reduced | increase of levels of mRNA for EP1 [7]: 40% | renal protection from IRI (serum NGAL, creatinine, KIM-1) (mice with ischemic AKI [8]): significantly aggravated IRI | renal arteriole area in the outer medulla [9]: significantly decreased | tissue congestion in the outer medulla (gross pathology) (mice with ischemic AKI [10]; 3 doses 5 mg/kg i.p., POD1, vs IRI-vehicle): worsened | renal injury (histopathology, tubular injury) (mice with ischemic AKI [10]; 3 doses 5 mg/kg, POD1): further exacerbated renal injury | reduced survival vs vehicle control (mice with ischemic AKI [11]): 25%

CCCCC[C@H](O)/C=C/[C@H]1[C@H](O)CC(=O)[C@@H]1C/C=C\CCCC(=O)O [PGE2, reference compound]
renal protection from IRI (serum NGAL, creatinine, KIM-1) (mice with ischemic AKI [8]): less effective for renal protection

CCCCC[C@H](O)/C=C/[C@H]1[C@H](O)CC(=O)[C@@H]1CCCCCCC(=O)O [PGE1, reference compound]
renal protection from IRI (serum NGAL, creatinine, KIM-1) (mice with ischemic AKI [8]): less effective for renal protection
